Reference: patent US9302999B2, “Substituted triazoles as herbicides” (E. I. DU PONT DE NEMOURS AND COMPANY, priority 2012, dated 2016)

Legend:
Format in all cases: in vivo
[1] = test system: corn (Zea mays); experiment: Test E pre-/postemergence: corn; conditions: scale 0 to 100
Text: (§1) Seeds of plant species selected from corn (Zea mays), soybean (Glycine max), velvetleaf (Abutilon theophrasti), lambsquarters (Chenopodium album), poinsettia, wild (wild poinsettia, Euphorbia heterophylla), pigweed, palmer (palmer pigweed, Amaranthus palmeri), waterhemp (common waterhemp, Amaranthus rudis), smartweed (ladysthumb smartweed, Polygonum persicaria), surinam grass (Brachiaria decumbens), crabgrass, large (large crabgrass, Digitaria sanguinalis), crabgrass, Brazil (Brazilian crabgrass, Digitaria horizontalis), panicum, fall (fall panicum, Panicum dichotomiflorum), foxtail, giant (giant foxtail, Setaria faberii), foxtail, green (green foxtail, Setaria viridis), goosegrass (Eleusine indica), johnsongrass (Sorghum halepense), ragweed (common ragweed, Ambrosia elation), barnyardgrass (Echinochloa crus-galli), sandbur (southern sandbur, Cenchrus echinatus), arrowleaf sida (Sida rhombifolia), ryegrass, Italian (Italian ryegrass, Lolium multiflorum), dayflower, (VA) (Virginia dayflower, Commelina virginica), field bindweed (Convolvulus arvensis), cocklebur (common cocklebur, Xanthium strumarium), morningglory (Ipomoea coccinea), nightshade (eastern black nightshade, Solanum ptycanthum), kochia (Kochia scoparia), nutsedge, yellow (yellow nutsedge, Cyperus esculentus) and beggarticks (hairy beggarticks, Bidens pilosa) were planted into a silt loam soil and treated preemergence with test chemicals formulated in a non-phytotoxic solvent mixture which included a surfactant. At the same time, plants selected from these crop and weed species were planted in pots containing a growing medium comprising spaghnum peat moss, vermiculite, wetting agent and starter nutrients and treated with postemergence applications of some of the test chemicals formulated in the same manner. Plants ranged in height from 2 to 18 cm for postemergence treatments (1- to 4-leaf stage).
(§2) Treated plants and controls were maintained in a greenhouse for 14 to 21 days, after which time all species were compared to controls and visually evaluated. Plant response ratings, summarized in Table E, are based on a scale of 0 to 100 where 0 is no effect and 100 is complete control. A dash (-) response means no test result.

[2] = test system: soybean (Glycine max); experiment: Test E pre-/postemergence: soybean; conditions: scale 0 to 100
Text: as §1, §2

[3] = test system: lambsquarters (Chenopodium album); experiment: Test E pre-/postemergence: lambsquarters; conditions: Preemergence, scale 0 to 100
Method in brief: (§3)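 Scores reflect greenhouse visual evaluation after 14–21 days, 0 meaning no effect and 100 complete control relative to untreated plants, for pre- and postemergence (1–4 leaf) applications.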

[4] = test system: waterhemp (common waterhemp, Amaranthus rudis); experiment: Test E pre-/postemergence: waterhemp; conditions: scale 0 to 100
Text: as §1, §2

[5] = test system: surinam grass (Brachiaria decumbens); experiment: Test E pre-/postemergence: surinam grass; conditions: Preemergence, scale 0 to 100
Text: as §1, §2

[6] = test system: foxtail, green (green foxtail, Setaria viridis); experiment: Test E pre-/postemergence: foxtail, green; conditions: Preemergence, scale 0 to 100
Text: as §1, §2

[7] = test system: goosegrass (Eleusine indica); experiment: Test E pre-/postemergence: goosegrass; conditions: Preemergence, scale 0 to 100
Text: as §1, §2

[8] = test system: sandbur (southern sandbur, Cenchrus echinatus); experiment: Test E pre-/postemergence: sandbur; conditions: scale 0 to 100
Method in brief: as §3

[9] = test system: ryegrass, Italian (Italian ryegrass, Lolium multiflorum); experiment: Test E pre-/postemergence: ryegrass, Italian; conditions: scale 0 to 100
Text: as §1, §2

[10] = test system: dayflower, (VA) (Virginia dayflower, Commelina virginica); experiment: Test E pre-/postemergence: dayflower, (VA); conditions: scale 0 to 100
Method in brief: as §3

[11] = test system: cocklebur (common cocklebur, Xanthium strumarium); experiment: Test E pre-/postemergence: cocklebur; conditions: Preemergence, scale 0 to 100
Method in brief: as §3

[12] = test system: waterhemp_RES2 (ALS/HPPD resistant common waterhemp, Amaranthus rudis); experiment: Test F postemergence: waterhemp_RES2; conditions: scale 0 to 100
Text: Seeds of plant species selected from corn (Zea mays), soybean (Glycine max), velvetleaf (Abutilon theophrasti), lambsquarters (Chenopodium album), poinsettia, wild (wild poinsettia, Euphorbia heterophylla), pigweed, palmer (palmer pigweed, Amaranthus palmeri), waterhemp (common waterhemp, Amaranthus rudis), surinam grass (Brachiaria decumbens), crabgrass, Brazil (Brazilian crabgrass, Digitaria horizontalis), panicum, fall (fall panicum Panicum dichotomiflorum), crabgrass, large (large crabgrass, Digitaria sanguinalis), foxtail, giant (giant foxtail, Setaria faberii), foxtail, green (green foxtail Setaria viridis), goosegrass (Eleusine indica), ragweed (common ragweed, Ambrosia elatior), barnyardgrass (Echinochloa crus-galli), sandbur (southern sandbur, Cenchrus echinatus), arrowleaf sida (Sida rhombifolia), ryegrass, Italian (Italian ryegrass, Lolium multiflorum), dayflower, VA (Virginia (VA) dayflower, Commelina virginica), field bindweed (Convolvulus arvensis), cocklebur (common cocklebur, Xanthium strumarium), morningglory (Ipomoea coccinea), nightshade (eastern black nightshade, Solanum ptycanthum), kochia (Kochia scoparia), nutsedge, yellow (yellow nutsedge, Cyperus esculentus), johnsongrass (Sorghum halepense), smartweed (ladysthumb smartweed, Polygonum persicaria), and beggarticks (hairy beggarticks, Bidens pilosa), were planted into a silt loam soil and treated preemergence with test chemicals formulated in a non-phytotoxic solvent mixture which included a surfactant. At the same time, plants selected from these crop and weed species and also pigweed (Amaranthus retroflexus), waterhemp_RES1 (ALS/Triazine resistant common waterhemp, Amaranthus rudis) and waterhemp_RES2 (ALS/HPPD resistant common waterhemp, Amaranthus rudis) were planted in pots containing a planting medium comprising spaghnum peat moss, vermiculite, wetting agent and starter nutrients treated with postemergence applications of some of the test chemicals formulated in the same manner. Plants ranged in height from 2 to 18 cm for postemergence treatments (1- to 4-leaf stage).
as §2

SMILES: Cc1nn(-c2ccc(C(F)(F)F)cc2)nc1Oc1ccnc(C(F)(F)F)c1 [Compound 120]
- Plant response rating: Corn ([1]; Postemergence, 8 g ai/ha): 10
- Plant response rating: Corn ([1]; Postemergence, 16 g ai/ha): 10
- Plant response rating: Corn ([1]; Postemergence, 31 g ai/ha): 10
- Plant response rating: Corn ([1]; Postemergence, 62 g ai/ha): 20
- Plant response rating: Corn ([1]; Postemergence, 125 g ai/ha): 20
- Plant response rating: Corn ([1]; Preemergence, 16 g ai/ha): 0
- Plant response rating: Corn ([1]; Preemergence, 62 g ai/ha): 5
- Plant response rating: Corn ([1]; Preemergence, 125 g ai/ha): 10
- Plant response rating: Corn ([1]; Preemergence, 250 g ai/ha): 10
- Plant response rating: Soybean ([2]; Postemergence, 8 g ai/ha): 15
- Plant response rating: Soybean ([2]; Postemergence, 16 g ai/ha): 20
- Plant response rating: Soybean ([2]; Postemergence, 31 g ai/ha): 30
- Plant response rating: Soybean ([2]; Postemergence, 62 g ai/ha): 40
- Plant response rating: Soybean ([2]; Postemergence, 125 g ai/ha): 50
- Plant response rating: Soybean ([2]; Preemergence, 16 g ai/ha): 0
- Plant response rating: Soybean ([2]; Preemergence, 31 g ai/ha): 25
- Plant response rating: Soybean ([2]; Preemergence, 62 g ai/ha): 35
- Plant response rating: Soybean ([2]; Preemergence, 125 g ai/ha): 35
- Plant response rating: Soybean ([2]; Preemergence, 250 g ai/ha): 35
- Plant response rating: Lambsquarters ([3]; 16 g ai/ha): 0
- Plant response rating: Lambsquarters ([3]; 31 g ai/ha): 50
- Plant response rating: Lambsquarters ([3]; 62 g ai/ha): 90
- Plant response rating: Lambsquarters ([3]; 125 g ai/ha): 98
- Plant response rating: Lambsquarters ([3]; 250 g ai/ha): 98
- Plant response rating: Waterhemp ([4]; Postemergence, 8 g ai/ha): 30
- Plant response rating: Waterhemp ([4]; Postemergence, 16 g ai/ha): 50
- Plant response rating: Waterhemp ([4]; Postemergence, 31 g ai/ha): 65
- Plant response rating: Waterhemp ([4]; Postemergence, 62 g ai/ha): 75
- Plant response rating: Waterhemp ([4]; Postemergence, 125 g ai/ha): 75
- Plant response rating: Waterhemp ([4]; Preemergence, 16 g ai/ha): 95
- Plant response rating: Waterhemp ([4]; Preemergence, 31 g ai/ha): 98
- Plant response rating: Waterhemp ([4]; Preemergence, 62 g ai/ha): 100
- Plant response rating: Waterhemp ([4]; Preemergence, 125 g ai/ha): 100
- Plant response rating: Waterhemp ([4]; Preemergence, 250 g ai/ha): 100
- Plant response rating: Surinam Grass ([5]; 16 g ai/ha): 0
- Plant response rating: Surinam Grass ([5]; 31 g ai/ha): 35
- Plant response rating: Surinam Grass ([5]; 62 g ai/ha): 35
- Plant response rating: Surinam Grass ([5]; 125 g ai/ha): 90
- Plant response rating: Surinam Grass ([5]; 250 g ai/ha): 100
- Plant response rating: Foxtail, Green ([6]; 16 g ai/ha): 15
- Plant response rating: Foxtail, Green ([6]; 31 g ai/ha): 85
- Plant response rating: Foxtail, Green ([6]; 62 g ai/ha): 100
- Plant response rating: Foxtail, Green ([6]; 125 g ai/ha): 100
- Plant response rating: Foxtail, Green ([6]; 250 g ai/ha): 100
- Plant response rating: Goosegrass ([7]; 16 g ai/ha): 95
- Plant response rating: Goosegrass ([7]; 31 g ai/ha): 100
- Plant response rating: Goosegrass ([7]; 62 g ai/ha): 100
- Plant response rating: Goosegrass ([7]; 125 g ai/ha): 100
- Plant response rating: Goosegrass ([7]; 250 g ai/ha): 100
- Plant response rating: Sandbur ([8]; Postemergence, 8 g ai/ha): 10
- Plant response rating: Sandbur ([8]; Postemergence, 16 g ai/ha): 10
- Plant response rating: Sandbur ([8]; Postemergence, 31 g ai/ha): 20
- Plant response rating: Sandbur ([8]; Postemergence, 62 g ai/ha): 30
- Plant response rating: Sandbur ([8]; Postemergence, 125 g ai/ha): 35
- Plant response rating: Sandbur ([8]; Preemergence, 16 g ai/ha): 5
- Plant response rating: Sandbur ([8]; Preemergence, 31 g ai/ha): 5
- Plant response rating: Sandbur ([8]; Preemergence, 62 g ai/ha): 5
- Plant response rating: Sandbur ([8]; Preemergence, 125 g ai/ha): 20
- Plant response rating: Sandbur ([8]; Preemergence, 250 g ai/ha): 75
- Plant response rating: Ryegrass, Italian ([9]; Postemergence, 8 g ai/ha): 0
- Plant response rating: Ryegrass, Italian ([9]; Postemergence, 16 g ai/ha): 10
- Plant response rating: Ryegrass, Italian ([9]; Postemergence, 31 g ai/ha): 15
- Plant response rating: Ryegrass, Italian ([9]; Postemergence, 62 g ai/ha): 20
- Plant response rating: Ryegrass, Italian ([9]; Postemergence, 125 g ai/ha): 35
- Plant response rating: Ryegrass, Italian ([9]; Preemergence, 16 g ai/ha): 0
- Plant response rating: Ryegrass, Italian ([9]; Preemergence, 31 g ai/ha): 35
- Plant response rating: Ryegrass, Italian ([9]; Preemergence, 62 g ai/ha): 35
- Plant response rating: Ryegrass, Italian ([9]; Preemergence, 125 g ai/ha): 90
- Plant response rating: Ryegrass, Italian ([9]; Preemergence, 250 g ai/ha): 98
- Plant response rating: Dayflower, VA ([10]; Postemergence, 8 g ai/ha): 10
- Plant response rating: Dayflower, VA ([10]; Postemergence, 16 g ai/ha): 10
- Plant response rating: Dayflower, VA ([10]; Postemergence, 31 g ai/ha): 10
- Plant response rating: Dayflower, VA ([10]; Postemergence, 62 g ai/ha): 10
- Plant response rating: Dayflower, VA ([10]; Postemergence, 125 g ai/ha): 15
- Plant response rating: Dayflower, VA ([10]; Preemergence, 16 g ai/ha): 0
- Plant response rating: Dayflower, VA ([10]; Preemergence, 31 g ai/ha): 0
- Plant response rating: Dayflower, VA ([10]; Preemergence, 62 g ai/ha): 50
- Plant response rating: Dayflower, VA ([10]; Preemergence, 125 g ai/ha): 50
- Plant response rating: Dayflower, VA ([10]; Preemergence, 250 g ai/ha): 50
- Plant response rating: Cocklebur ([11]; 16 g ai/ha): 0
- Plant response rating: Cocklebur ([11]; 31 g ai/ha): 0
- Plant response rating: Cocklebur ([11]; 62 g ai/ha): 90
- Plant response rating: Cocklebur ([11]; 125 g ai/ha): 90

SMILES: Cc1nn(-c2ccnc(Cl)c2)nc1Cc1ccnc(C(F)(F)F)c1 [Compound 141]
- Plant response rating, Waterhemp, Res2 ([12]; 8 g ai/ha): 85
- Plant response rating, Waterhemp, Res2 ([12]; 16 g ai/ha): 95
- Plant response rating, Waterhemp, Res2 ([12]; 31 g ai/ha): 95
- Plant response rating, Waterhemp, Res2 ([12]; 62 g ai/ha): 95
- Plant response rating, Waterhemp, Res2 ([12]; 125 g ai/ha): 100

SMILES: CCc1nn(-c2ccc(C(F)(F)F)cc2)nc1Oc1ccnc(C(F)(F)F)c1 [Compound 169]
- Plant response rating, Waterhemp, Res2 ([12]; 16 g ai/ha): 75
- Plant response rating, Waterhemp, Res2 ([12]; 31 g ai/ha): 85
- Plant response rating, Waterhemp, Res2 ([12]; 62 g ai/ha): 95
- Plant response rating, Waterhemp, Res2 ([12]; 125 g ai/ha): 100
- Plant response rating, Waterhemp, Res2 ([12]; 250 g ai/ha): 100

SMILES: CCOc1nn(-c2ccc(F)cc2)nc1Cc1ccnc(C(F)(F)F)c1 [Compound 196, 4-[[5-ethoxy-2-(4-fluorophenyl)-2H-1,2,3-triazol-4-yl]methyl]-2-(trifluoromethyl)pyridine]
- Plant response rating, Waterhemp, Res2 ([12]; 8 g ai/ha): 90
- Plant response rating, Waterhemp, Res2 ([12]; 16 g ai/ha): 90
- Plant response rating, Waterhemp, Res2 ([12]; 31 g ai/ha): 95
- Plant response rating, Waterhemp, Res2 ([12]; 62 g ai/ha): 95
- Plant response rating, Waterhemp, Res2 ([12]; 125 g ai/ha): 95
